Here are results for four compounds from patent US8088734B2, “Oral delivery of peptides” (Unigene Laboratories Inc., priority 2003, dated 2012).

SMILES strings stand for the structures. A value given as a limit tells only on which side of the number the result lay.

Series [1] is described as follows: Oral bioavailability of sCTgly vs sCT-NH2, enteric coated capsules, dog model. As to conditions: for Cmax: male, Beagle, read-out: Mean Cmax ± SEM; for Cmax / Mean AUC ± SERM: oral enteric coated capsule, dog plasma, adjusted to a 1 mg dose. In kind it is in vivo, Beagle dogs. As for the experimental part: A study was carried out in a dog model to compare the pharmacokinetic parameters of orally delivered glycine-extended sCT (sCTgly) with those of amidated sCT (sCT-NH2).
Eight adult male Beagle dogs, weighing between 12 and 16 kg, were used in this study. Dogs were fasted overnight prior to administration of the test peptide, but were allowed free access to water. A wash-out period of at least 1 week occurred between experiments for each dog. Each dog received an orally administered, enteric coated gelatin capsule that contained 1.11 mg of sCTgly in week 1 and 1.11 mg of sCT-NH2 in week 2. Prior to capsule administration, a 20-gauge intravenous (IV) catheter was inserted into a brachial vein for the collection of blood samples. Two pre-dose samples of 3 ml each were collected from the brachial vein.
After administration of the capsule, 3 ml blood samples were collected from the brachial vein at 15 minute intervals up to 240 minutes post-administration. Blood samples were collected into new heparinized Monovette sampling syringes. Samples were placed on ice before being centrifuged for 10 minutes at approximately 2750 rpm at 2-8° C. The plasma supernatant was transferred to color-coded microcentrifuge tubes labeled with the time point and stored frozen at −20° C. prior to analysis to determine the concentration of sCTgly or sCT-NH2.
The concentration of sCTgly in plasma was determined by radioimmunoassay with an RIA kit from Peninsula Laboratories. sCT-NH2 concentration in plasma was determined by a sandwich ELISA immunoassay using a kit from Diagnostic Systems Laboratories Inc. From the pharmacokinetic profile of sCTgly or sCT-NH2 in plasma, the parameters of Cmax (peak of plasma concentration in pg/ml) and AUC (Area under the Curve) were determined. All measured values were normalized for a 1 mg peptide dose for either of the two peptides.

A further series is described as follows: in vivo. The note with it: rat; for AUC / Cmax / level at 0.25 h / level at 0.5 h / level at 1 h / level at 2 h: female; for level at 0.25 h / level at 0.5 h / level at 1 h / level at 2 h: 2.5 mg. The text has this: The effect of C-terminal amidation on the absorption of luteinizing hormone-releasing hormone (LHRH-NH2) from the duodenum of anesthetized rats was examined. In this study the absorption characteristics of LHRH-NH2, a naturally occurring C-terminal amidated decapeptide were compared with that of LHRH-COOH, a decapeptide with the same amino acid sequence as that of LHRH-NH2 except that the C-terminal amino acid of LHRH-COOH is gly-COOH instead of gly-NH2. Twelve female rats were anesthetized and implanted with a cannula in the carotid artery for taking blood samples at various times. Six rats were injected in the duodenum through a 27 gauge needle with 0.5 mL of LHRH-NH2 (5 mg/mL) in 0.5M citric acid and lauroylcarnitine (10 mg/mL) and six rats with injected in the duodenum with 0.5 mL LHRH-COOH) (5 mg/mL) in the same formulation. Samples of blood were taken prior to the administration of formulated LHRH-NH2 or LHRH-COOH and at 5, 15, 30, 60, and 120 minutes after peptide administration. The resulting plasma samples were analyzed for LHRH-NH2 or LHRH-COOH by high performance liquid chromatography equipped with a fluorescence detector to measure the concentration of peptide in plasma.

Series [2] in a line: Blood levels of salmon calcitonin after direct injection into duodenum, ileum or colon of rats. The series is classed as in vivo. As to conditions: active components injected directly into duodenum. An excerpt: The acid is believed to lower the local intestinal pH (where the active agent has been released) to levels below the optimal range for many intestinal proteases and other intestinal enzymes. This decrease in pH reduces the proteolytic activity of the intestinal proteases, thus affording protection to the peptide and the membrane translocator from potential degradation. The activity of these proteases is diminished by the temporarily acidic environment provided by the invention. It is preferred that sufficient acid be provided that local intestinal pH is lowered temporarily to 5.5 or below, preferably 4.7 or below and more preferably 3.5 or below. The sodium bicarbonate test described below (in the section captioned “the pH-Lowering Agent”) is indicative of the required acid amount.

For series [3] the following is noted: cited from earlier work.

By Cmax is commonly meant the maximum level reached in the sampled fluid or tissue. Regarding `CC(C)C[C@H](NC(=O)[C@H](CCCCN)NC(=O)CNC(=O)[C@H](CC(C)C)NC(=O)[C@@H](NC(=O)[C@@H]1CSSC[C@H](N)C(=O)N[C@@H](CO)C(=O)N[C@@H](CC(N)=O)C(=O)N[C@@H](CC(C)C)C(=O)N[C@@H](CO)C(=O)N[C@@H]([C@@H](C)O)C(=O)N1)C(C)C)C(=O)N[C@@H](CO)C(=O)N[C@@H](CCC(N)=O)C(=O)N[C@@H](CCC(=O)O)C(=O)N[C@@H](CC(C)C)C(=O)N[C@@H](Cc1c[nH]cn1)C(=O)N[C@@H](CCCCN)C(=O)N[C@@H](CC(C)C)C(=O)N[C@@H](CCC(N)=O)C(=O)N[C@H](C(=O)N[C@@H](Cc1ccc(O)cc1)C(=O)N1CCC[C@H]1C(=O)N[C@@H](CCCNC(=N)N)C(=O)N[C@H](C(=O)N[C@@H](CC(N)=O)C(=O)N[C@H](C(=O)NCC(=O)N[C@@H](CO)C(=O)NCC(=O)N[C@H](C(=O)N1CCC[C@H]1C(=O)NCC(=O)O)[C@@H](C)O)[C@@H](C)O)[C@@H](C)O)[C@@H](C)O` [sCTgly], in series [1], the highest concentration (Cmax) came out at 0.485 ± 0.106 ng/mL and the “Mean AUC ± SERM” value is listed as 25,125 ± 5,525 pg · min/ml.

In general, AUC refers to the area under the concentration-time curve, a measure of exposure. A low value points to low exposure. For `CC(C)C[C@H](NC(=O)CNC(=O)[C@H](Cc1ccc(O)cc1)NC(=O)[C@H](CO)NC(=O)[C@H](Cc1c[nH]c2ccccc12)NC(=O)[C@H](Cc1cnc[nH]1)NC(=O)[C@@H]1CCC(=O)N1)C(=O)N[C@@H](CCCNC(=N)N)C(=O)N1CCC[C@H]1C(=O)NCC(N)=O` [LHRH-NH2], in the series “in vivo”, the AUC was 1820 ng·h/mL, the maximum concentration (Cmax) turned out to be 3280 ± 893 ng/mL, the level at 0.25 h was 3280 ± 893 ng/mL and the level at 0.5 h worked out at 2900 ± 612 ng/mL. Besides, in the series “in vivo”, the level at 1 h is 1280 ± 282 ng/mL, the level at 2 h was 382 ± 103 ng/mL, the “AUC relative to free acid form of LHRH” value worked out at 6 times and the “amount detected in plasma relative to LHRH-COOH” value worked out at 5 times. Moreover, in the series “in vivo”, the “time at which maximum concentration (Cmax) was detected in plasma” value is listed as “five”.

As to `CC(C)C[C@H](NC(=O)CNC(=O)[C@H](Cc1ccc(O)cc1)NC(=O)[C@H](CO)NC(=O)[C@H](Cc1c[nH]c2ccccc12)NC(=O)[C@H](Cc1cnc[nH]1)NC(=O)[C@@H]1CCC(=O)N1)C(=O)N[C@@H](CCCN=C(N)N)C(=O)N1CCC[C@H]1C(=O)NCC(=O)O` [LHRH-COOH], in the series “in vivo”, the exposure (AUC) is 296 ng·h/mL, the maximum concentration (Cmax) was 654 ± 103 ng/mL, the level at 0.25 h is 654 ± 103 ng/mL and the level at 0.5 h came to 391 ± 81 ng/mL. In the series “in vivo”, the level at 1 h stood at 163 ± 68 ng/mL, the level at 2 h is 56 ± 19 ng/mL and the “time at which maximum concentration (Cmax) was detected in plasma” value is “five”.

One may read the half-life as how long it takes for the measured level to halve. Regarding `CC(C)C[C@H](NC(=O)[C@H](CCCCN)NC(=O)CNC(=O)[C@H](CC(C)C)NC(=O)[C@@H](NC(=O)[C@@H]1CSSC[C@H](N)C(=O)N[C@@H](CO)C(=O)N[C@@H](CC(N)=O)C(=O)N[C@@H](CC(C)C)C(=O)N[C@@H](CO)C(=O)N[C@@H]([C@@H](C)O)C(=O)N1)C(C)C)C(=O)N[C@@H](CO)C(=O)N[C@@H](CCC(N)=O)C(=O)N[C@@H](CCC(=O)O)C(=O)N[C@@H](CC(C)C)C(=O)N[C@@H](Cc1c[nH]cn1)C(=O)N[C@@H](CCCCN)C(=O)N[C@@H](CC(C)C)C(=O)N[C@@H](CCC(N)=O)C(=O)N[C@H](C(=O)N[C@@H](Cc1ccc(O)cc1)C(=O)N1CCC[C@H]1C(=O)N[C@@H](CCCNC(=N)N)C(=O)N[C@H](C(=O)N[C@@H](CC(N)=O)C(=O)N[C@H](C(=O)NCC(=O)N[C@@H](CO)C(=O)NCC(=O)N[C@H](C(=O)N1CCC[C@H]1C(N)=O)[C@@H](C)O)[C@@H](C)O)[C@@H](C)O)[C@@H](C)O` [sCT-NH2], in series [1], the peak concentration (Cmax) is 3.2 ng/mL and the “Mean AUC ± SERM” value is listed as 148,000 ± 18,200 pg · min/ml. In addition, in series [1] (oral, dog), the “mean AUC relative to sCTgly” value was determined as 5.9 times and the “mean Cmax relative to sCTgly” value was determined as 6.6 times. Besides, in series [2], the “Tmax for blood levels” value was in the range of 5 to 15 min. In addition, in series [3] (man), the “blood levels after injection at conventional dosages” value is listed as “no detectable blood levels more than two hours after injection” and the “duration of beneficial effect on osteoclasts” value is “more than 24 hours”. Moreover, the “peak levels at which proven effective against osteoporosis” value in series [3] (nasally administered, 200 International units) is not below 10 picograms per milliliter. Also, the “peak levels at which some patients report gastrointestinal distress” value in series [3] (patients) is reported as not below 200 picograms per milliliter. In addition, in series [3] (subcutaneous administration in man), the half-life is 20 to 40 min. Besides, the peak serum concentration entry in series [3] (subcutaneous administration, 100 International units) was “about 250 picograms per milliliter”.
